Data on 30 compounds can be found in publication PMC11054282, “Structural Investigations on 2-Amidobenzimidazole Derivatives as New Inhibitors of Protein Kinase CK1 Delta” (Pharmaceuticals, 2024).

Several values for one entry are separate records, joined by “and”; a condition that tells them apart may be missing. Equal values may be shown once.

Data set [1] has as its target T1, truncated CK1δ (Homo sapiens, UniProt P48730).
T1 construct: truncated CK1δ, recombinant human, GST-tagged, aa 1-294, Merck Millipore; GST; purchased Merck Millipore, Merck KGaA, Darmstadt, Germany
T1 sequence (P48730 1-294): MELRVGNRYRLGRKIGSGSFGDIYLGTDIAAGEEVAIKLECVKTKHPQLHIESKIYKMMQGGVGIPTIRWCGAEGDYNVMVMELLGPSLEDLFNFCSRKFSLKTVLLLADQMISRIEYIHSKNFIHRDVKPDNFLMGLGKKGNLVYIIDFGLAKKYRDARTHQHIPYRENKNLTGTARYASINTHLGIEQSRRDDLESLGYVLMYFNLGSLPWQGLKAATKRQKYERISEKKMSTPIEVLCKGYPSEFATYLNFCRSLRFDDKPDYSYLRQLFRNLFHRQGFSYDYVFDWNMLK
Nature of the data set: CK1δ luminescent kinase assay (Kinase Glo kit). The data set is classed as biochemical. Conditions: for IC50: truncated recombinant human CK1δ (aa 1-294), casein substrate, 2 μM ATP, mean ± SE of three independent experiments in duplicate. The procedure: The newly synthesized derivatives 1–32 were tested on truncated CK1δ using the luminescent kinase assay Kinase Glo® KIT (Promega Italy S.r.l., Milan, Italy), and the results are reported in Table 1 and Table 2. Derivatives were tested at a fixed dose of 40 μM; then, those showing a residual kinase activity percentage lower than 50% were tested at 10 μM.
The inhibitory activity of synthesized compounds on CK1δ has been carried out following a procedure for a luminescence-based assay (KinaseGlo® kit, Promega Italy Srl, Milan, Italy) already reported in the literature. Luminescent assays were performed in white 96-well plates in a 40 μL final volume. The buffer used is a milliq water solution of 50 mM HEPES (pH 7.5), 1 mM EDTA, 1 mM EGTA, and 15 mM MgCl2. In a typical assay, 10 μL of inhibitor solution (desired concentrations were obtained by diluting in buffer a starting 10 mM solution in DMSO) and 10 μL of enzyme solution (truncated CK1δ, recombinant human, GST-tagged, aa 1-294, Merck Millipore, Merck KGaA, Darmstadt, Germany) were added to the well, followed by 20 μL of assay buffer containing casein substrate (casein solution from bovine milk, 5% in water, Sigma-Aldrich, Merck KGaA, Darmstadt, Germany) and ATP, at a final concentration of 0.05% and 2 μM, respectively. The final enzyme concentration was 6.5 nM. […] After 60 min of incubation at 30 °C, the enzymatic reactions were stopped with the addition of 40 μL of KinaseGlo reagent (Promega Italy Srl, Milan, Italy). The luminescence signal (relative light unit, RLU) was recorded after 10 min at 25 °C using a Tecan Infinite M100. […] IC50 values were evaluated using ten different inhibitor concentrations ranging from 100 to 0.026 μM. Data were analyzed using Excel and GraphPad Prism software (version 8.0).

Take `O=C(Cn1ccc(C(=O)Nc2nc3ccccc3[nH]2)n1)c1ccccc1` [Compound 1, N-(1H-Benzimidazol-2yl)-1-(2-oxo-2-phenylethyl)-1H-pyrazole-3-carboxamide]: the melting point is 220 to 221 °C. Also, in data set [1], the IC50 is > 40 µM.
Regarding `Cc1ccc2[nH]c(NC(=O)c3ccn(CC(=O)c4ccccc4)n3)nc2c1` [Compound 2, N-(5(6)-Methyl-1H-benzimidazol-2yl)-1-(2-oxo-2-phenylethyl)-1H-pyrazole-3-carboxamide], the melting point was 199 to 200 °C. The IC50 in data set [1] was < 15 µM and 14.6 µM.
For `O=C(Cn1ccc(C(=O)Nc2nc3cc(Cl)ccc3[nH]2)n1)c1ccccc1` [Compound 3, N-(5(6)-Chloro-1H-benzimidazol-2yl)-1-(2-oxo-2-phenylethyl)-1H-pyrazole-3-carboxamide], the melting point is 200 to 203 °C. Besides, in data set [1], the IC50 is < 15 µM and 1.8 µM.
`COc1ccccc1C(=O)Cn1ccc(C(=O)Nc2nc3ccccc3[nH]2)n1` [Compound 4, N-(1H-Benzimidazol-2yl)-1-(2-(2-methoxyphenyl)-2-oxoethyl)-1H-pyrazole-3-carboxamide] came in with a melting point of 168 to 170 °C. Besides, in data set [1], the IC50 was > 40 µM.
Compound `COc1ccccc1C(=O)Cn1ccc(C(=O)Nc2nc3cc(C)ccc3[nH]2)n1` [Compound 5, N-(5(6)-Methyl-1H-benzimidazol-2yl)-1-(2-(2-methoxyphenyl)-2-oxoethyl)-1H-pyrazole-3-carboxamide] registered a melting point of 201 to 203 °C. For the same compound, in data set [1], the IC50 was > 40 µM.
`COc1ccccc1C(=O)Cn1ccc(C(=O)Nc2nc3cc(Cl)ccc3[nH]2)n1` [Compound 6, N-(5(6)-Chloro-1H-benzimidazol-2yl)-1-(2-(2-methoxyphenyl)-2-oxoethyl)-1H-pyrazole-3-carboxamide] displayed a melting point of 219 to 221 °C. In addition, the IC50 in data set [1] was < 15 µM and 13.2 µM.
Consider `O=C(Nc1nc2ccccc2[nH]1)c1cc[nH]n1` [Compound 7, N-(1H-Benzimidazol-2-yl)-1H-pyrazole-3(5)-carboxamide], for which the melting point is > 300 °C. In addition, the 50% inhibitory concentration (IC50) in data set [1] is > 40 µM.
Taken in the same sequence, the figures for `Cc1ccc2[nH]c(NC(=O)c3cc[nH]n3)nc2c1` [Compound 8, N-(5(6)-Methyl-1H-benzimidazol-2-yl)-1H-pyrazole-3(5)-carboxamide] were > 300 °C and > 40 µM.
Taken in the same sequence, the figures for `O=C(Nc1nc2cc(Cl)ccc2[nH]1)c1cc[nH]n1` [Compound 9, N-(5(6)-Chloro-1H-benzimidazol-2-yl)-1H-pyrazole-3(5)-carboxamide] were > 300 °C and > 40 µM.
`O=C(Nc1nc2cc(C(F)(F)F)ccc2[nH]1)c1cc[nH]n1` [Compound 10, 1H-Pyrazole-N-(5(6)-trifluoromethyl-1H-benzimidazol-2-yl)-3(5)-carboxamide]: the melting point is > 300 °C. For the same compound, the half-inhibitory concentration (IC50) in data set [1] is > 40 µM.
As for `COc1ccc2[nH]c(NC(=O)c3cc[nH]n3)nc2c1` [Compound 11, N-(5(6)-Methoxy-1H-benzimidazol-2-yl)-1H-pyrazole-3(5)-carboxamide], the melting point is > 300 °C. In addition, the IC50 in data set [1] is > 40 µM.
The like results for `O=C(Nc1nc2cc([N+](=O)[O-])ccc2[nH]1)c1cc[nH]n1` [Compound 12, N-(5(6)-Nitro-1H-benzimidazol-2-yl)-1H-pyrazole-3(5)-carboxamide] were, in that order, > 300 °C and > 40 µM.
With `O=C(Cc1cc[nH]n1)Nc1nc2ccccc2[nH]1` [Compound 13, N-(1H-benzimidazol-2-yl)-2-(1H-pyrazol-3(5)-yl)acetamide], the melting point lay within 295 to 297 °C. Besides, the IC50 in data set [1] was determined as 4.21 ± 1.92 µM.
Taken in the same sequence, the figures for `Cc1ccc2[nH]c(NC(=O)Cc3cc[nH]n3)nc2c1` [Compound 14, N-(5(6)-Methyl-1H-benzimidazol-2-yl)-2-(1H-pyrazol-3(5)-yl)acetamide] were 257 °C (dec.) and 1.64 ± 0.31 µM.
The like results for `O=C(Cc1cc[nH]n1)Nc1nc2cc(Cl)ccc2[nH]1` [Compound 15, N-(5(6)-Cloro-1H-benzimidazol-2-yl)-2-(1H-pyrazol-3(5)-yl)acetamide] were, in that order, 286 to 288 °C and 0.485 ± 0.31 µM.
Taken in the same sequence, the figures for `O=C(Cc1cc[nH]n1)Nc1nc2cc(C(F)(F)F)ccc2[nH]1` [Compound 16, 2-(1H-Pyrazol-3(5)-yl)-N-(5(6)-trifluoromethyl-1H-benzimidazol-2-yl)acetamide] were 275 to 277 °C and 1.74 ± 0.32 µM.
The compound `COc1ccc2[nH]c(NC(=O)Cc3cc[nH]n3)nc2c1` [Compound 17, N-(5(6)-Methoxy-1H-benzimidazol-2-yl)-2-(1H-pyrazol-3(5)-yl)acetamide] returned a melting point of 239 to 240 °C. The IC50 in data set [1] stood at 6.27 ± 0.95 µM.
Taken in the same sequence, the figures for `O=C(Cc1cc[nH]n1)Nc1nc2cc([N+](=O)[O-])ccc2[nH]1` [Compound 18, N-(5(6)-Nitro-1H-benzimidazol-2-yl)(1H-pyrazol-3(5)-yl)-2-acetamide] were 272 to 274 °C and 0.12 ± 0.083 µM.
For the compound `O=C(Cc1cc[nH]n1)Nc1nc2c([N+](=O)[O-])cccc2[nH]1` [Compound 19, N-(4(7)-Nitro-1H-benzimidazol-2-yl)(1H-pyrazol-3(5)-yl)-2-acetamide], the melting point fell in the range of 280 to 282 °C. Besides, in data set [1] (19 (4-NO2) versus 18 (5-NO2)), the “fold less potent than the regioisomer 18 (CK1δ)” value is reported as 10 fold. Further, the IC50 in data set [1] turned out to be 1.22 ± 0.23 µM.
Consider `CC(C)(C)c1ccc2[nH]c(NC(=O)Cc3cc[nH]n3)nc2c1` [Compound 20, N-(5(6)-terButyl-1H-benzimidazol-2-yl)(1H-pyrazol-3(5)-yl)-2-acetamide], for which the half-maximal inhibitory concentration (IC50) in data set [1] was 1 ± 0.18 µM.
Take `O=C(Cc1cc[nH]n1)Nc1nc2cc(OC(F)(F)F)ccc2[nH]1` [Compound 21, 2-(1H-Pyrazol-3(5)-yl)-N-(5(6)-trifluoromethoxy-1H-benzimidazol-2-yl)acetamide]: the melting point is 270 to 274 °C. Moreover, in data set [1], the IC50 is 5.99 ± 0.87 µM.
Taken in the same sequence, the figures for `O=C(Cc1cc[nH]n1)Nc1nc2cc(Cl)c(Cl)cc2[nH]1` [Compound 22, N-(5,6-Dichloro-1H-benzimidazol-2-yl)-2-(1H-pyrazol-3(5)-yl)acetamide] were > 300 °C and 0.98 ± 0.35 µM.
In turn, `N#Cc1ccc2[nH]c(NC(=O)Cc3cc[nH]n3)nc2c1` [Compound 23, N-(5(6)-Cyano-1H-benzimidazol-2-yl)(1H-pyrazol-(3)5-yl)-2-acetamide] had a melting point of 267 to 268 °C. For the same compound, the 50% inhibitory concentration (IC50) in data set [1] worked out at 0.0986 ± 0.0394 µM.
As to `NC(=O)c1ccc2[nH]c(NC(=O)Cc3cc[nH]n3)nc2c1` [Compound 24], the melting point was in the range of 290 to 292 °C. Moreover, the IC50 in data set [1] turned out to be 2.53 ± 0.38 µM.
Taken in the same sequence, the figures for `NS(=O)(=O)c1ccc2[nH]c(NC(=O)Cc3cc[nH]n3)nc2c1` [Compound 25, 2-(1H-Pyrazol-3(5)-yl)-N-(5(6)-sulfamoyl-1H-benzimidazol-2-yl)acetamide] were 285 to 287 °C and > 40 µM.
Take `CNS(=O)(=O)c1ccc2[nH]c(NC(=O)Cc3cc[nH]n3)nc2c1` [Compound 26]: the melting point was 238 to 240 °C. For the same compound, in data set [1], the IC50 was < 15 µM and 10.7 µM.
With `CC(=O)Nc1ccc2[nH]c(NC(=O)Cc3cc[nH]n3)nc2c1` [Compound 27, N-(5(6)-Acetamido-1H-benzimidazol-2-yl)(1H-pyrazol-3(5)-yl)acetamide], in data set [1], the IC50 is > 40 µM.
The compound `O=C(Cc1cc[nH]n1)Nc1nc2cc(NC(=O)c3ccccc3)ccc2[nH]1` [Compound 28, N-(2-(2-(1H-Pyrazol-3-yl)acetamido)-1H-benzimidazol-3(5)-yl)benzamide] gave a melting point of 292 to 293 °C. In addition, in data set [1], the IC50 was > 40 µM.
The like results for `O=C(Cc1cc[nH]n1)Nc1nc2c(NC(=O)c3ccccc3)cccc2[nH]1` [Compound 29, N-(2-(2-(1H-Pyrazol-3-yl)acetamido)-1H-benzimidazol-4(7)-yl)benzamide] were, in that order, 280 °C (dec.) and > 40 µM.
Take `Cn1c(NC(=O)Cc2cc[nH]n2)nc2ccc(Cl)cc21` [Compound 32, N-(6-Chloro-1-methyl-benzimidazol-2-yl)(1H-pyrazol-3(5)-yl)acetamide]: the IC50 in data set [1] amounted to 20.1 ± 7.3 µM.
